Assays:
CK-1ε = target: T1, CK-1ε (Homo sapiens, UniProt P49674); experiment: ADP-Glo kinase inhibition assay, CK-1ε; assay type: biochemical; conditions: percentage of maximum activity of the DMSO control, mean n = 2, 10 µM ATP, read-out: Residual activity CK-1ε; for remaining activity at 1 µM: 1 μM compound; for remaining activity at 10 µM: 10 μM compound
T1 construct: host or cells: Sf9 insect cells (baculovirus)
Procedure: (§1) Kinase enzymatic activities were assayed in 384-well plates using the ADP-Glo^TM assay kit (Promega, Madison, WI, USA) according to the recommendations of the manufacturer. This luminescent ADP detection assay was described by Zegzouti and co-workers and provides a homogeneous and high-throughput screening method to measure kinase activity by quantifying the amount of ADP produced during a kinase reaction. Briefly, the reactions were carried out in a final volume of 6 µL for 30 min at 30 °C in an appropriate kinase buffer (10 mM MgCl2, 1 mM EGTA, 1 mM DTT, 25 mM Tris-HCl pH 7.5, 50 µg/mL heparin), with peptide or protein as substrate in the presence of 10 µM ATP. Peptide substrates were obtained from ProteoGenix (Schiltigheim, France) or Sigma for Histone H1, Poly (L-glutamic acid–L-tyrosine) sodium salt, Casein and MBP. After that, 6 µL of ADP-Glo^TM Kinase Reagent was added to stop the kinase reaction. After an incubation time of 50 min at room temperature (rt), 12 µL of Kinase Detection Reagent was added for one hour at rt. The transmitted signal was measured using the Envision (PerkinElmer, Waltham, MA, USA) microplate luminometer and expressed as Relative Light Units (RLUs). Kinase activities are expressed as percentages of remaining kinase activities detected after treatment with 1 or 10 µM of the tested compounds. The maximum kinase activity was measured in the absence of inhibitor but with an equivalent dose of DMSO (solvent of the tested compounds).
(§2) 3. Kinase inhibition assays
(§3) Kinase enzymatic activities were assayed in 384-well plates using the ADP-GloTM assay kit (Promega, Madison, WI) according to the recommendations of the manufacturer. This luminescent ADP detection assay was described by Zegzouti and co-workers and provides a homogeneous and high-throughput screening method to measure kinase activity by quantifying the amount of ADP produced during a kinase reaction. Briefly, the reactions were carried out in a final volume of 6 µl for 30 min at 30°C in appropriate kinase buffer (10 mM MgCl2, 1 mM EGTA, 1 mM DTT, 25 mM Tris-HCl pH 7.5, 50 µg/mL heparin), with peptide or protein as substrate in the presence of 10 µM ATP. Peptide substrates were obtained from ProteoGenix (Schiltigheim, France) or Sigma for Histone H1, Poly (L-glutamic acid – L-tyrosine) sodium salt, Casein and MBP. After that, 6 µL of ADP-GloTM Kinase Reagent was added to stop the kinase reaction. After an incubation time of 50 min at room temperature (rt), 12 µL of Kinase Detection Reagent was added for 1 h at rt. The transmitted signal was measured using the Envision (PerkinElmer, Waltham, MA) microplate luminometer and expressed in Relative Light Unit (RLU). Kinase activities are expressed in percentages of remaining kinase activities detected after treatment with 1 or 10 µM of the tested compounds. The maximal kinase activity is measured in the absence of inhibitor but with an equivalent dose of DMSO (solvent of the tested compounds).
(§4) Table. Human protein kinases tested in the panel: CDK9, HASPIN, PIM1, GSK3b, CK1ε, JAK3, CLK1 […]
(§5) 1 Peptide substrates were obtained from ProteoGenix (Schiltigheim, France) or Sigma for Histone H1, Poly (L-glutamic acid – L-tyrosine) sodium salt, Casein and MBP; 2 “Sp” stands for phosphorylated serine.
(§6) Controls inhibitors: To validate each kinase assay, the following model inhibitors were used under the same conditions than the tested compounds: Staurosporine from Streptomyces sp.

Haspin = target: T2, Haspin (Homo sapiens, UniProt Q8TF76); experiment: ADP-Glo kinase inhibition assay, Haspin; assay type: biochemical; conditions: percentage of maximum activity of the DMSO control, mean n = 2, 10 µM ATP, read-out: Residual activity Haspin; for remaining activity at 1 µM: 1 μM compound; for remaining activity at 10 µM: 10 μM compound
T2 construct: amino acids 470 to Histone H3 peptide (1-21): (Other) 798, recombinant; host or cells: bacteria
T2 sequence (Q8TF76 470-798): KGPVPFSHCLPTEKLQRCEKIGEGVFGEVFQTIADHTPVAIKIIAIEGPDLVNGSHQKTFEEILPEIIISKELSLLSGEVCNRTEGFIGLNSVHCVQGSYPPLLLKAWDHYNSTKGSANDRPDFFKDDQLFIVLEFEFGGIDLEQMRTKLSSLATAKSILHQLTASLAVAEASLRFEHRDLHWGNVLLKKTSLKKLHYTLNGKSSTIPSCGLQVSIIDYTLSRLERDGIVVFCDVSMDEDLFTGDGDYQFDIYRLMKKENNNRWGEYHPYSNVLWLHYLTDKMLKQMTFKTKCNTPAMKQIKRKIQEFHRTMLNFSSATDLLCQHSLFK
Procedure: as §1, §2, §3, §4
Protein Kinase Enzyme Description Substrate1
(Family) (Working concentration)
CDK9/CyclinT Human, recombinant, expressed by Peptide:
(CMGC) baculovirus in Sf9 insect cells […]
CLK1 Human, recombinant, expressed by Peptide: […]
(CMGC) baculovirus in Sf9 insect cells (57.3µM)
DYRK1A Human, recombinant, expressed by Peptide: […]
(CMGC) baculovirus in Sf9 insect cells (10.7µM)
PIM1 Human proto-oncogene, recombinant, Peptide: […]
(CAMK) expressed in bacteria (630 µM)
GSK3 Human, recombinant, expressed by Peptide:
(CMGC) baculovirus in Sf9 insect cells […]pEDEEE 3
HASPIN Human, kinase domain, amino acids 470 to Histone H3 peptide (1-21):
(Other) 798, recombinant, expressed in bacteria […] (8µM)
CK1ε Human, recombinant, expressed by Peptide: […]pAYSITA 2
(CK1) baculovirus in Sf9 insect cells (170µM)
JAK3 Human, recombinant, expressed by Peptide: […]
(TK) baculovirus in Sf9 insect cells (94µM) […]

GSK-3β = target: T3, GSK-3β (Homo sapiens, UniProt P49841); experiment: ADP-Glo kinase inhibition assay, GSK-3β; assay type: biochemical; conditions: percentage of maximum activity of the DMSO control, mean n = 2, 10 µM ATP, read-out: Residual activity GSK-3β; for remaining activity at 1 µM: 1 μM compound; for remaining activity at 10 µM: 10 μM compound
T3 construct: host or cells: Sf9 insect cells (baculovirus)
Procedure: as §1, §2, §3, §4, §5, §6

T1 sequence (P49674 whole entry): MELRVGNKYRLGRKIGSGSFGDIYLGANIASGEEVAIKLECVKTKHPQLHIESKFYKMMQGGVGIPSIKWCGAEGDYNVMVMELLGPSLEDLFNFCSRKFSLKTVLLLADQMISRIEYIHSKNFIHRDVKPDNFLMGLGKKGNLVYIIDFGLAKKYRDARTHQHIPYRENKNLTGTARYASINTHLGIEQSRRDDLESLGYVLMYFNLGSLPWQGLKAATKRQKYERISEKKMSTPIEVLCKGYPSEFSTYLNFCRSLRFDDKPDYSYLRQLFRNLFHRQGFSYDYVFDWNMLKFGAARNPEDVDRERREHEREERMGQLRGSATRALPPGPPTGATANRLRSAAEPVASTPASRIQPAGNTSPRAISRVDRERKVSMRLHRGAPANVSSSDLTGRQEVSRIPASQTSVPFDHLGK
T3 sequence (P49841 whole entry): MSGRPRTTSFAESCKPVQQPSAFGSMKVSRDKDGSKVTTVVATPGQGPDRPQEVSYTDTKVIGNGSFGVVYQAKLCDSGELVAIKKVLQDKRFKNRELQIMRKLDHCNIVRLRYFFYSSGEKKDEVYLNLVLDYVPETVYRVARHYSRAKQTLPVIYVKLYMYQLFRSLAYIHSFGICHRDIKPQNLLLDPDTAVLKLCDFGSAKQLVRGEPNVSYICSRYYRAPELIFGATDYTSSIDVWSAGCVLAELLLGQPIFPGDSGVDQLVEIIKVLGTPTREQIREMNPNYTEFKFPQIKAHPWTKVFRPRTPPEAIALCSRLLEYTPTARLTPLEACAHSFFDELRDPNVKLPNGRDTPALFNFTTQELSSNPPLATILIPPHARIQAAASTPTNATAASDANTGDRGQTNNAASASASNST

`COC(=N)c1nc2cc3c(=O)n(Cc4ccccc4)cnc3cc2s1` [Compound 6a, Methyl 7-benzyl-8-oxo-7,8-dihydrothiazolo[4,5-g]quinazoline-2-carbimidate] showed a remaining activity at 1 µM (CK-1ε) of 100%, a remaining activity at 10 µM (CK-1ε) of 69% and a remaining activity at 1 µM (Haspin) of 89%. For the same compound, the remaining activity at 10 µM (Haspin) was 105%, the remaining activity at 1 µM (GSK-3β) was 94% and the remaining activity at 10 µM (GSK-3β) was 76%. For the same compound, the melting point was 213 to 214 °C.

`COC(=N)c1nc2cc3ncn(Cc4ccccc4)c(=O)c3cc2s1` [Compound 6b, Methyl 7-benzyl-8-oxo-7,8-dihydrothiazolo[5,4-g]quinazoline-2-carbimidate] showed a remaining activity at 1 µM (CK-1ε) of 111%, a remaining activity at 10 µM (CK-1ε) of 103% and a remaining activity at 1 µM (Haspin) of 95%. It also gave a remaining activity at 10 µM (Haspin) of 82%, a remaining activity at 1 µM (GSK-3β) of 101% and a remaining activity at 10 µM (GSK-3β) of 107%. For the same compound, the melting point was 244 to 245 °C.

With `COC(=N)c1nc2c(ccc3c(=O)n(Cc4ccccc4)cnc32)s1` [Compound 6c, Methyl 7-benzyl-6-oxo-6,7-dihydrothiazolo[5,4-h]quinazoline-2-carbimidate] the remaining activity at 1 µM (CK-1ε) was 112%, the remaining activity at 10 µM (CK-1ε) was 87% and the remaining activity at 1 µM (Haspin) was 39%. The remaining activity at 10 µM (Haspin) was 12%, the remaining activity at 1 µM (GSK-3β) was 81% and the remaining activity at 10 µM (GSK-3β) was 91%. The melting point was 213 to 214 °C.

Compound `COC(=N)c1nc2ccc3c(=O)n(Cc4ccccc4)cnc3c2s1` [Compound 6d, Methyl 7-benzyl-6-oxo-6,7-dihydrothiazolo[4,5-h]quinazoline-2-carbimidate] has a remaining activity at 1 µM (CK-1ε) of 92%, a remaining activity at 10 µM (CK-1ε) of 98% and a remaining activity at 1 µM (Haspin) of 82%. For the same compound, the remaining activity at 10 µM (Haspin) was 51%, the remaining activity at 1 µM (GSK-3β) was 94% and the remaining activity at 10 µM (GSK-3β) was 105%. For the same compound, the melting point was 205 to 206 °C.

Compound `COC(=N)c1nc2cc3c(Nc4ccc(OC)cc4F)ncnc3cc2s1` [Compound 15a, Methyl 8-[(2-fluoro-4-methoxyphenyl)amino]thiazolo[4,5-g]quinazoline-2-carbimidate] has a remaining activity at 1 µM (CK-1ε) of 95%, a remaining activity at 10 µM (CK-1ε) of 72% and a remaining activity at 1 µM (Haspin) of 83%. It also gave a remaining activity at 10 µM (Haspin) of 66%, a remaining activity at 1 µM (GSK-3β) of 90% and a remaining activity at 10 µM (GSK-3β) of 70%. For the same compound, the melting point was 246 to 247 °C.

`COC(=N)c1nc2cc3ncnc(Nc4ccc(OC)cc4F)c3cc2s1` [Compound 15b, Methyl 8-[(2-fluoro-4-methoxyphenyl)amino]thiazolo[5,4-g]quinazoline-2-carbimidate] showed a remaining activity at 1 µM (CK-1ε) of 98%, a remaining activity at 10 µM (CK-1ε) of 108% and a remaining activity at 1 µM (Haspin) of 80%. It also gave a remaining activity at 10 µM (Haspin) of 88%, a remaining activity at 1 µM (GSK-3β) of 101% and a remaining activity at 10 µM (GSK-3β) of 104%. For the same compound, the melting point was 239 to 240 °C.

`COC(=N)c1nc2ccc3ncn(Cc4ccccc4)c(=O)c3c2s1` [Compound I, methyl 8-benzyl-9-oxo-8,9-dihydrothiazolo[5,4-f]quinazoline-2-carbimidate, reference compound] gave a remaining activity at 1 µM (CK-1ε) of 92%, a remaining activity at 10 µM (CK-1ε) of 70% and a remaining activity at 1 µM (Haspin) of 60%. The remaining activity at 10 µM (Haspin) was 45%, the remaining activity at 1 µM (GSK-3β) was 73% and the remaining activity at 10 µM (GSK-3β) was 23%.

In the case of `COC(=N)c1nc2ccc3ncnc(Nc4ccc(OC)cc4F)c3c2s1` [Compound II, methyl 9-[(2-fluoro-4-methoxyphenyl)amino]thiazolo[5,4-f]quinazoline-2-carbimidate, reference compound], the remaining activity at 1 µM (Haspin) is reported as 31% and the remaining activity at 10 µM (Haspin) is reported as 8%.

— paper PMC11597202, “Novel Thiazole-Fused [4,5-g] or [5,4-g]Quinazolin-8-ones and Their Quinazoline Analogues: Synthesis and Biological Evaluation” (Pharmaceuticals, 2024)
